# Experimental data: ChEMBL document CHEMBL1149959, “Synthesis of potent -D-glucocerebrosidase inhibitors: N-alkyl--valienamines” (Bioorg Med Chem Lett, 1996); call rule not given here
# Tests used:
# [1] = target: T1, Lysosomal acid glucosylceramidase (Mus musculus, UniProt P17439); assay: Compound was tested for inhibitory activity against beta-glucocerebrosidase.
# T1 sequence (P17439 whole entry): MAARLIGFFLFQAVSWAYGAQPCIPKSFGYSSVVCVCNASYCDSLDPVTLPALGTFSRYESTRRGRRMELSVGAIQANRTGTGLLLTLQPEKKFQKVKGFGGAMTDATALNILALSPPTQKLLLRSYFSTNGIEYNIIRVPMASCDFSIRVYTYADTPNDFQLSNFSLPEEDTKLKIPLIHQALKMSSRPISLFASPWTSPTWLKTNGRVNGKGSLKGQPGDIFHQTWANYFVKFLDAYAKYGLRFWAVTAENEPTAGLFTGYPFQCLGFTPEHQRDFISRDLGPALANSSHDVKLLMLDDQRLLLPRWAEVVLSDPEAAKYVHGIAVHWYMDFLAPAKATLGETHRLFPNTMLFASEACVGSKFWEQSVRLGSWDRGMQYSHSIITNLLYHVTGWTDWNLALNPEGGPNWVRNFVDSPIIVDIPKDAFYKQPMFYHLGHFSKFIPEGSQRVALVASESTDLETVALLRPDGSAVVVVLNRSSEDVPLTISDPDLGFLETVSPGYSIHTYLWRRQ
# [2] = target: T1, Lysosomal acid glucosylceramidase
smiles,measurement,setting,value
CCCCCCCCCCCCCCN[C@@H]1C=C(CO)[C@H](O)C(O)[C@@H]1O (some centres undefined),IC50,[1],0.12 µM
OC1C2O[C@H]2[C@@H](O)C(O)[C@@H]1O (some centres undefined),IC50,[1],1.1 µM
CCCCCCCCCCN[C@@H]1C=C(CO)[C@H](O)C(O)[C@@H]1O (some centres undefined),IC50,[1],0.07 µM
CCCCCCN[C@@H]1C=C(CO)[C@H](O)C(O)[C@@H]1O (some centres undefined),IC50,[1],0.3 µM
CCCCN[C@@H]1C=C(CO)[C@H](O)C(O)[C@@H]1O (some centres undefined),IC50,[1],11 µM
CCCCCCCCCCCCC/C=C/[C@@H](O)[C@H](CN[C@@H]1C=C(CO)[C@H](O)C(O)[C@@H]1O)NC(=O)CCCCCCCCCCCCCCC (some centres undefined),IC50,[1],0.3 µM
CCCCCCCCN[C@@H]1C=C(CO)[C@H](O)C(O)[C@@H]1O (some centres undefined),IC50,[1],0.03 µM
CCCCCCCCCCCCCCCCCCN[C@@H]1C=C(CO)[C@H](O)C(O)[C@@H]1O (some centres undefined),IC50,[1],0.3 µM
"N[C@H]1C=C(CO)C(O)[C@H](O)C1O (single isomer, unassigned) [VALIENAMINE]",IC50,[2],Not Active
